From paper PMC6736568, “Discovery of Novel Anti-cryptosporidial Activities From Natural Products by in vitro High-Throughput Phenotypic Screening” (Frontiers in Microbiology, 2019)
Counter-ions that a name gives are not always drawn. Like-named read-outs stand apart in the source and are kept apart here.

What was measured:
Cryptosporidium parvum = experiment: qRT-PCR assay of the growth of C. parvum in vitro in HCT-8 host cells (primary and secondary screening, EC50); assay type: cell-based; settings: Cryptosporidium parvum, HCT-8; for inhibition at 10 µM: primary screening at 10 uM, read-out: Inhibition (%); for inhibition at 3.3 µM: secondary screening at 3.3 uM, read-out: % Inhibition (3.3 uM)
in vitro = settings: for cytotoxicity at 41 h, 10 µM: human
[1] = primary screening at 10 uM, treated vs control

Row | Compound | inhibition at 10 µM (Cryptosporidium parvum) | inhibition at 3.3 µM (Cryptosporidium parvum) | cytotoxicity at 41 h, 10 µM (in vitro) | Hs18S ΔCT (HCT-8 host cells (Hs18S); human, 41 h, 10 μM) | cytotoxicity at 10 µM (in vitro) | Hs18S ΔCT (HCT-8 host cells (Hs18S); [1]) | Hs18S ΔCT (HCT-8 host cells (Hs18S))
1 | N[C@@H](CCC(=O)N[C@@H](CS)C(=O)NCC(=O)O)C(=O)O [GLUTATHIONE] | 68.1% | -20% | -32% | -0.40 |  |  | 
2 | C[C@H](CCC(=O)NCC(=O)O)[C@H]1CC[C@H]2[C@@H]3[C@H](O)C[C@@H]4C[C@H](O)CC[C@]4(C)[C@H]3C[C@H](O)[C@]12C [GLYCOCHOLIC ACID] | -58.4% |  |  | -0.31 | -23.7% |  | 
3 | O=c1c(O)c(-c2ccc(O)c(O)c2)oc2c(O)c(O)cc(O)c12 [GOSSYPETIN] | -17.5% |  |  |  | -2.6% | -0.04 | 
4 | Cc1cc2c(C(C)C)c(O)c(O)c(C=O)c2c(O)c1-c1c(C)cc2c(C(C)C)c(O)c(O)c(C=O)c2c1O [GOSSYPOL] | 21.4% |  | 26.6% |  |  | 0.45 | 
5 | CN(C)Cc1c[nH]c2ccccc12 [GRAMINE] | -43.9% |  | -33.5% |  |  | -0.42 | 
6 | COC1=CC(=O)C[C@@H](C)[C@]12Oc1c(Cl)c(OC)cc(OC)c1C2=O [GRISEOFULVIN] | 66% | 9% | 18.7% | 0.30 |  |  | 
7 | CC(=O)O[C@@H]1[C@H]2CC[C@H]3[C@@](C)(O)[C@@H]4C[C@H](O)C(C)(C)[C@@]4(O)[C@H](O)C[C@@]13C[C@@]2(C)O [GR[…]] | 3.95% |  |  |  | -2.4% | -0.03 | 
8 | COc1ccccc1O [GUAIACOL] | -32.9% |  | 1.6% | 0.02 |  |  | 
9 | Cc1ccc(C(C)C)cc2c(C)ccc1-2 [GUAIAZULENE] | -38.2% |  | -27% | -0.34 |  |  | 
10 | CC1=C(CCC(=O)O)c2cc3[nH]c(cc4nc(cc5[nH]c(cc1n2)c(C)c5C(C)O)C(C)=C4C(C)O)c(C)c3CCC(=O)O (stereo not shown) [HAEMATOPORPHYRIN] | 93.1% | 33% | 63.3% | 1.45 |  |  | 
11 | Oc1cc2c(cc1O)C1c3ccc(O)c(O)c3OCC1(O)C2 (stereo not shown) [HAEMATOXYLIN] | -27.2% |  | 0.1% | 0.00 |  |  | 
12 | COc1ccc2c3c([nH]c2c1)C(C)=NCC3 [HARMALINE] | -31.9% |  |  |  | 0.9% | 0.01 | 
13 | Cc1nccc2c1[nH]c1ccccc12 [HARMANE] | -23.2% |  |  |  | 4.5% | 0.07 | 
14 | COc1ccc2c(c1)[nH]c1c(C)nccc12 [HARMINE] | 82.2% | -62% |  |  | 28.6% | 0.49 | 
15 | Cc1nccc2c1[nH]c1cc(O)ccc12 [HARMOL HYDROCHLORIDE] | -55.1% |  |  |  | -10.1% | -0.14 | 
16 | C[C@]1(OC(=O)/C=C/c2ccccc2)C[C@@H](O)[C@]2(O)C=CO[C@@H](O[C@@H]3O[C@H](CO)[C@@H](O)[C@H](O)[C@H]3O)[C@@H]21 [HARPAGOSIDE] | -42.1% |  | 21.8% | 0.36 |  |  | 
17 | CC(=O)O[C@H]1CC[C@@]2(C)[C@@H](CC[C@@H]3[C@@H]2CC(=O)[C@]2(C)[C@@H]4[C@H](C[C@@H]32)O[C@]2(CC[C@@H](C)CO2)[C@H]4C)C1 [HECOGENIN ACETATE] | 6.66% |  | -3.7% | -0.05 |  |  | 
18 | CC1(C)CC[C@]2(C(=O)O)CC[C@]3(C)C(=CC[C@@H]4[C@@]5(C)CC[C@H](O)[C@@](C)(CO)[C@@H]5CC[C@]43C)[C@@H]2C1 [HEDERAGENIN] | 53.4% |  |  |  | -7.7% | -0.11 | 

Row | Compound | inhibition at 10 µM (Cryptosporidium parvum) | inhibition at 3.3 µM (Cryptosporidium parvum) | cytotoxicity at 41 h, 10 µM (in vitro) | Hs18S ΔCT (HCT-8 host cells (Hs18S); human, 41 h, 10 μM) | cytotoxicity at 10 µM (in vitro) | Hs18S ΔCT (HCT-8 host cells (Hs18S); [1]) | Hs18S ΔCT (HCT-8 host cells (Hs18S))
19 | C=C1C(=O)O[C@@H]2C[C@@]3(C)CCC[C@H](C)C3=C[C@H]12 [HELENINE] | -20% |  | 6.4% | 0.10 |  |  | 
20 | O=Cc1ccccc1O[C@@H]1O[C@H](CO)[C@@H](O)[C@H](O)[C@H]1O [HELICIN] | 18.6% |  |  | 0.07 | 4.7% |  | 
21 | O=C1C=C2CC3(O)COc4c(ccc(O)c4O)C3=C2C=C1O (stereo not shown) [HEMATEIN] | 10.1% |  | 8.6% | 0.13 |  |  | 
22 | COc1ccc([C@@H]2CC(=O)c3c(O)cc(O)cc3O2)cc1O [HESPERETIN] | 17.6% |  | -1.2% | -0.02 |  |  | 
23 | COc1cc(O)c2c(=O)cc(C)oc2c1CC=C(C)C [HETEROPEUCENIN, METHYL ETHER] | -96.3% |  | -7.2% | -0.10 |  |  | 
24 | NCCc1c[nH]cn1 [HISTAMINE DIHYDROCHLORIDE] | -20.6% |  |  |  | 1.3% |  | 0.02
25 | COc1ccc2c(c1)O[C@H]1c3ccc(OC)cc3OC[C@@H]21 [HOMOPTEROCARPIN] | 5.57% |  |  |  | -0.7% | -0.01 | 
26 | C/C=C1\[C@H]2C=C(C)C[C@]1(N)c1ccc(=O)[nH]c1C2 [HUPERZINE A] | 37.6% |  |  |  | 12.4% | 0.19 | 
27 | C[C@]12CCC(=O)C=C1CC[C@@H]1[C@@H]2[C@@H](O)C[C@@]2(C)[C@H]1CC[C@]2(O)C(=O)CO [HYDROCORTISONE] | 21.1% |  | -38.1% | -0.47 |  |  | 
28 | CC(C)/C(O)=C1/C(=O)O[C@@H](c2ccoc2)[C@]2(C)C(O)[C@@H](O)[C@@]34OC5(C)OC67CC(C)(C(O)[C@]6(O)[C@@H](O)[C@]3(O5)C12)[C@H](CC(=O)O)[C@]74C (stereo partly shown) [HYDROLYSIS PRODUCT OF BUSSEIN] | 8.3% |  | -60.9% | -0.69 |  |  | 
29 | COc1ccc2c(C)cc(=O)oc2c1 [HYMECROMONE METHYL ETHER] | -1.44% |  | 16.6% | 0.26 |  |  | 
30 | CN1[C@@H]2CC[C@H]1C[C@@H](OC(=O)[C@H](CO)c1ccccc1)C2 [HYOSCYAMINE] | 36.2% |  |  |  | -8.9% | -0.12 | 
31 | O=c1[nH]cnc2nc[nH]c12 [HYPOXANTHINE] | 23.2% |  | 14.3% | 0.22 |  |  | 
32 | COc1ccc(-c2oc3c(CC=C(C)C)c(O[C@@H]4O[C@H](CO)[C@@H](O)[C@H](O)[C@H]4O)cc(O)c3c(=O)c2O[C@@H]2O[C@@H](C)[C@H](O)[C@@H](O)[C@H]2O)cc1 [ICARIIN] | -12.3% |  | -16.4% | -0.22 |  |  | 
33 | OCc1c[nH]c2ccccc12 [INDOLE-3-CARBINOL] | 0.77% |  | -31.7% |  |  | -0.40 | 
34 | O[C@H]1[C@H](O)[C@@H](O)[C@H](O)[C@@H](O)[C@H]1O [INOSITOL] | 11.9% |  | 5.5% |  |  | 0.08 | 
35 | COc1c(O)cc(O)cc1O [IRETOL] | -15% |  | -24.7% | -0.32 |  |  | 
36 | COc1cc(-c2coc3cc(O[C@@H]4O[C@H](CO)[C@@H](O)[C@H](O)[C@H]4O)c(OC)c(O)c3c2=O)cc(O)c1OC [IRIDIN] | -13.3% |  | -10% | -0.14 |  |  | 
